Measurements published in patent US11274100B2, “EP300/CREBBP inhibitor” (Daiichi Sankyo Company, Limited, priority 2017, dated 2022).

Columns and labels:
[1] = system: TE-8 cells; assay: Cell growth inhibitory activity, TE-8 cells (Test Example 3); type: cell-based; settings: Homo sapiens, 72 h, cultured for 3 days, CellTiter-Glo
Description: (§1) [Test Example 3] Evaluation of Cell Growth Inhibitory Activity
(§2) As a culture medium for each cell, a 10% FBS supplemented RPMI 1640 medium (for LK2 cells and TE-8 cells derived from human esophageal cancer) was used. LK2 cells were purchased from Human Science Research Resources Bank, and TE-8 cells were purchased from Riken Cell Bank. The compound of each of Examples 1 to 108b was prepared by dilution with Freedom EVO 150 (Tecan Trading AG) (4-fold diluted, 10 stages, 10 mM to 38 nM). The resultant was added to respective wells of a 384-well plate in an amount of 40 nL/well using Echo 555 (Labcyte Inc.). The LK2 or TE-8 cells were seeded in the plate at 400 cells/40 μL/well (day 0), and were cultured for 3 days. On the day of addition of the compound (day 0) and 3 days after the addition of the compound (day 3), an ATP measurement reagent of CellTiter-Glo (registered trademark) 2.0 Assay (Promega Corporation, #G9242) was added to each well in an amount of 10 μL/well, and the amount of luminescence of each well was measured using EnVision. Based on the amount of luminescence (C0) on the day of the addition of the compound, and the amounts of luminescence of a compound non-addition group (C3) and a compound addition group (T3) obtained after the 3-day culture of the compound, a cell survival rate was calculated in accordance with the following expression: Cell survival rate (%)=(T3−C0)/(C3−C0)×100
(§3) A concentration (GI50 value) of each compound at which the growth of the TE-8 or LK-2 cells was inhibited by 50% was calculated by semilogarithmically plotting the cell survival rate at each concentration and the compound concentration.

[2] = system: LK2 cells; assay: Cell growth inhibitory activity, LK2 cells (Test Example 3); type: cell-based; settings: Homo sapiens, LK-2, 72 h, cultured for 3 days, CellTiter-Glo
Description: as §1, §2, §3

[3] = system: H3K27Ac; assay: Intracellular H3K27Ac inhibitory activity in LK2 cells (Test Example 2); type: cell-based; settings: Homo sapiens, LK-2, cultured with compound for 3 hours, read-out: Test Example 2 H3K27Ac Inhibition (LK2) IC50
In short: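 Human squamous lung cancer LK2 cells (40000/well) cultured overnight at 37 °C, 5% CO2 before treatment. After paraformaldehyde fixation, peroxide quench and blocking, H3K27 acetylation detected with anti-acetyl-H3K27 rabbit mAb (4 °C overnight) and HRP secondary; chemiluminescent read-out.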

[4] = target: EP300 (Homo sapiens, UniProt Q09472); assay: Histone acetyltransferase inhibitory activity against EP300 (Test Example 1); type: biochemical; settings: 50 ng/mL EP300, 2 μM Acetyl-CoA, 100 nM Histone H4(1-25)-GSGSK (Biotin), 28° C. for 1 hour
EP300, sequence (Q09472 whole entry): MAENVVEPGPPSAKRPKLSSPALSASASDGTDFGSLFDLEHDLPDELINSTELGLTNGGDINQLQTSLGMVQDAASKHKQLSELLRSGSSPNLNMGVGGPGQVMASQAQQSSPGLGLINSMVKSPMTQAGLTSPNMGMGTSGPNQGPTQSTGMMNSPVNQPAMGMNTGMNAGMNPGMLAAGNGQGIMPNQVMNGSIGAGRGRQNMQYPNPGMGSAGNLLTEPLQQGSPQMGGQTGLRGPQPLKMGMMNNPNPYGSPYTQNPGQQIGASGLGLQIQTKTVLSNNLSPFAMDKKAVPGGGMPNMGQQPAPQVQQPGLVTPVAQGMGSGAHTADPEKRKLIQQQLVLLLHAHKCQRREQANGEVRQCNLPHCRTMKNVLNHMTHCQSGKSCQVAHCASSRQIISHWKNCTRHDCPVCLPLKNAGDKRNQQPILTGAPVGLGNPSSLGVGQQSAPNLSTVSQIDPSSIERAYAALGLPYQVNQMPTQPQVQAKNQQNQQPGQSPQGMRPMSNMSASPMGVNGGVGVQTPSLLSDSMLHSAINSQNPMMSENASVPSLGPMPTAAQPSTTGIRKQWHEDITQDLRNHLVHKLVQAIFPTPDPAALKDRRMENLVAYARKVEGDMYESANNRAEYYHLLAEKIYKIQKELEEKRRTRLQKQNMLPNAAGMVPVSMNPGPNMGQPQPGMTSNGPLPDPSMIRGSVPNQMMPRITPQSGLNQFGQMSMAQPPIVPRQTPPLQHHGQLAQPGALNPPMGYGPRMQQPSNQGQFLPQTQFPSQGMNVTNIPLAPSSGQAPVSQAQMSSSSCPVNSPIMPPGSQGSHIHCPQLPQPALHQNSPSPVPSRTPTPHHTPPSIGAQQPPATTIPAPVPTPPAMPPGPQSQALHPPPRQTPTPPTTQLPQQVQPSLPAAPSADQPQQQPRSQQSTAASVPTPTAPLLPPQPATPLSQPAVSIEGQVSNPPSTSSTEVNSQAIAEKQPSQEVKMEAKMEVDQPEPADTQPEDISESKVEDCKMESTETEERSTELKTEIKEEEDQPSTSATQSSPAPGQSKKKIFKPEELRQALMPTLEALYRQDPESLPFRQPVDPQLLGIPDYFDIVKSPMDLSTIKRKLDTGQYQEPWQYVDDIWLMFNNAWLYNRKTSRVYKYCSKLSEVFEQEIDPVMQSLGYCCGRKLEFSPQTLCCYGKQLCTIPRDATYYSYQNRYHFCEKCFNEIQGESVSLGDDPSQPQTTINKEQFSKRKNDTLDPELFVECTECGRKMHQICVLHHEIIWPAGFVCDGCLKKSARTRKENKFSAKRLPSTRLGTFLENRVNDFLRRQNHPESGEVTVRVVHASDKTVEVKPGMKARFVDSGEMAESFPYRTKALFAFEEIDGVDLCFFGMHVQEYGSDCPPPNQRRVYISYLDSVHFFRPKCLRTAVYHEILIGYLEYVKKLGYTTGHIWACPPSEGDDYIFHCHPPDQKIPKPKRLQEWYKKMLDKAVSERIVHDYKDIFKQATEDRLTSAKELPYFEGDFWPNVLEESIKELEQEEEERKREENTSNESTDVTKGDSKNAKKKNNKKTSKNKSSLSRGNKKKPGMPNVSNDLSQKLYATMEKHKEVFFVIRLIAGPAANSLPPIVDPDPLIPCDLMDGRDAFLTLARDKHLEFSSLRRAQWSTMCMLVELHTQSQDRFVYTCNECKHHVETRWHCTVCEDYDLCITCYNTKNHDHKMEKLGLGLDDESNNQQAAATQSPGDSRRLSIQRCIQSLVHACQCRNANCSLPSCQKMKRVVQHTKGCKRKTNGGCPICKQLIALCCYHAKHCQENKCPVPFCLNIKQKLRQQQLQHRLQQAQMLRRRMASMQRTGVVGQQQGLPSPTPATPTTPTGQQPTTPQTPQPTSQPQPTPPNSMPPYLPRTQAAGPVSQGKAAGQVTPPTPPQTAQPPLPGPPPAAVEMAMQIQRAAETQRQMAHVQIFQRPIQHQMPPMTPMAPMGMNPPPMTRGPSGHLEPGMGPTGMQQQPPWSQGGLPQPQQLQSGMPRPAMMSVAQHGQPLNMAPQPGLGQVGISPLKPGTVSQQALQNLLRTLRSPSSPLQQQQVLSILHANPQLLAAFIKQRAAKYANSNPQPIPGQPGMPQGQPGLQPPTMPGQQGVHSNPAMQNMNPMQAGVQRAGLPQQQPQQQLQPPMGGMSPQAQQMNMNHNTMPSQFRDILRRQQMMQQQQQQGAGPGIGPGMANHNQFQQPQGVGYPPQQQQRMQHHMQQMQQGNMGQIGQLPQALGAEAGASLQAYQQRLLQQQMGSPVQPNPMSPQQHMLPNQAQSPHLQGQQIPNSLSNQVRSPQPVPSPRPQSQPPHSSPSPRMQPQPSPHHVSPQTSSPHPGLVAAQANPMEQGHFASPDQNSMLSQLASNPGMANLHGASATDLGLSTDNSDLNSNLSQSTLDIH
In short: (§4)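 Enzyme (50 ng/mL EP300 or 125 ng/mL CREBBP) incubated 1 h at 28° C with 2 μM acetyl-CoA, 100 nM biotinylated histone H4(1-25) peptide and 10 to 0.0006 μM compound in pH 8.0 Tris buffer with 330 nM trichostatin A, 1% DMSO. Reaction stopped with Lys-CoA; acetylation read by TR-FRET (Eu-anti pan-Ac/Sta-ULight) after overnight room-temperature incubation.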

[5] = target: CREBBP (Homo sapiens, UniProt Q92793); assay: Histone acetyltransferase inhibitory activity against CREBBP (Test Example 1); type: biochemical; settings: 125 ng/mL CREBBP, 2 μM Acetyl-CoA, 100 nM Histone H4(1-25)-GSGSK (Biotin), 28° C. for 1 hour
CREBBP, sequence (Q92793 whole entry): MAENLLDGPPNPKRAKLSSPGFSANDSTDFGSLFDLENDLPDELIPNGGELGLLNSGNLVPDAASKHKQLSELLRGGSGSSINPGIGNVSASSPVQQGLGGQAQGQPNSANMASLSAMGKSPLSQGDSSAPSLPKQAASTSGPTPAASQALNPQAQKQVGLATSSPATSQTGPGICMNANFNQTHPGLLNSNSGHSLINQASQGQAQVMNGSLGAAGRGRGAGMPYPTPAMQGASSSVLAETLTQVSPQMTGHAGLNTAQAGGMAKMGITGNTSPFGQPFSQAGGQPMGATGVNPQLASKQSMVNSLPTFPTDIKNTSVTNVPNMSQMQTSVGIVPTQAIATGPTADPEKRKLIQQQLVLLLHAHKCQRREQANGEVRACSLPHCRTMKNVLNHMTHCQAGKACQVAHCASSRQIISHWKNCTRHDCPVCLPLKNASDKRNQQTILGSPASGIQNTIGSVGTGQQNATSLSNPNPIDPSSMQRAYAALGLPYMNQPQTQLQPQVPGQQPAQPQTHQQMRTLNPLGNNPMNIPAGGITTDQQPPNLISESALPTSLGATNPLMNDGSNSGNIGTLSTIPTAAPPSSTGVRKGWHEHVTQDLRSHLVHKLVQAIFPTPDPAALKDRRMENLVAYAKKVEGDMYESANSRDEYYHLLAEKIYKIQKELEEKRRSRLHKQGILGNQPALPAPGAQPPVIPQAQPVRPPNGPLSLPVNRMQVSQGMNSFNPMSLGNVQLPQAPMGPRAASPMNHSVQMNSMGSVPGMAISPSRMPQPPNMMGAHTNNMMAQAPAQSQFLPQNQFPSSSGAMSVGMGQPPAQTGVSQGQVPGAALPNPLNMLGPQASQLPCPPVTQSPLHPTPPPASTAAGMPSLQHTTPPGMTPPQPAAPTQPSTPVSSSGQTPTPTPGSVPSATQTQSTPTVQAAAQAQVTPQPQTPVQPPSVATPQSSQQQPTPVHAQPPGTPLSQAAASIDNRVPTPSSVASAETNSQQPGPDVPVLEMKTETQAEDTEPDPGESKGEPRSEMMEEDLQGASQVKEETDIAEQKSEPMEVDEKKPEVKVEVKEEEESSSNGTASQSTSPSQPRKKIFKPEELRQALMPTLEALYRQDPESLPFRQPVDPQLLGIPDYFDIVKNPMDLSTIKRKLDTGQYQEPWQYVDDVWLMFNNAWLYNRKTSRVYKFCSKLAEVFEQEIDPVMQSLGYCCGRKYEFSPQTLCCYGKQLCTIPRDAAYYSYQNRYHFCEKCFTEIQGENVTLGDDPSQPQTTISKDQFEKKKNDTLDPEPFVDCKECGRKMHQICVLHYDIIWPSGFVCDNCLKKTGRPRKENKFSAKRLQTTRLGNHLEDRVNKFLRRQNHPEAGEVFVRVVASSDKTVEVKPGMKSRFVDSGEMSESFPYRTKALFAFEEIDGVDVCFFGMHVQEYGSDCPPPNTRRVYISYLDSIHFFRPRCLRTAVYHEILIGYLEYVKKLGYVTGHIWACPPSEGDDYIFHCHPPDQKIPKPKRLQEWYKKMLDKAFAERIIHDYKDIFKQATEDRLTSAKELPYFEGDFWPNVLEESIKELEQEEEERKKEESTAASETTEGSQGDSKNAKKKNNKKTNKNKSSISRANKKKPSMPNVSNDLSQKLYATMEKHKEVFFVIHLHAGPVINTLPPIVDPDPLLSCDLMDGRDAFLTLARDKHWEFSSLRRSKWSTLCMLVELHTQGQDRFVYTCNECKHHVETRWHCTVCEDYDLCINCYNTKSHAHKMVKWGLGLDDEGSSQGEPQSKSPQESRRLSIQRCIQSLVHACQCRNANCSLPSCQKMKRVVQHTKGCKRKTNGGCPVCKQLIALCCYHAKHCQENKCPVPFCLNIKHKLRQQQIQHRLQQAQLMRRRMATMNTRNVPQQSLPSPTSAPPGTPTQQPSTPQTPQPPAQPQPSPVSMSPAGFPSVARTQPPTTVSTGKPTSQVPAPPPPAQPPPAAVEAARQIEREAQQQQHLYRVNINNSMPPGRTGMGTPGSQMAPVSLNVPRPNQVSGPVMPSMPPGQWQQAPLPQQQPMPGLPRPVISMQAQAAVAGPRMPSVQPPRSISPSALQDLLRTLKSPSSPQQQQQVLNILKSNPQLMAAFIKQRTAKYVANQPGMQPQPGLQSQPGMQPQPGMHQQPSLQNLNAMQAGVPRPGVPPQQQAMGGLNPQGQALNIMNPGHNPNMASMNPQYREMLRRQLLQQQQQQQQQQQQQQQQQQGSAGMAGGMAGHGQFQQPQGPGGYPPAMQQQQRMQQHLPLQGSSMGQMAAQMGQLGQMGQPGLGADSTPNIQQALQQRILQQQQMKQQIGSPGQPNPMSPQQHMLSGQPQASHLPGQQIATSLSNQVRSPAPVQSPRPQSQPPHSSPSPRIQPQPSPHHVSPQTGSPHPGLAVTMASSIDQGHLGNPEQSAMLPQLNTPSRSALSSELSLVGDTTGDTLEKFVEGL
In short: as §4

Row | Compound | GI50 [1] | GI50 [2] | IC50 [3] | IC50 [4] | IC50 [5]
1 | COc1ccc(C2(C(=O)N3CC(=O)C[C@@H]3C(=O)Nc3ccc4[nH]ccc4n3)CCC(F)(F)CC2)cc1 [Example 75, 1-{[4,4-Difluoro-1-(4-methoxyphenyl)cyclohexyl]carbonyl}-4-oxo-N-1H-pyrrolo[3,2-b]pyridin-5-yl-D-prolinamide] | 613 nM | 398 nM | 67 nM | 43 nM | 77 nM
2 | [2H]C([2H])([2H])N(C(=O)C1(c2ccc(OC)cc2)CCC(F)(F)CC1)[C@H](CO)C(=O)Nc1ccc2[nH]ncc2n1 [Example 76, 4,4-Difluoro-N-[(2R)-3-hydroxy-1-oxo-1-(1H-pyrazolo[4,3-b]pyridin-5-ylamino)propan-2-yl]-1-(4-methoxyphenyl)-N—(^2H3)methylcyclohexanecarboxamide] | 127 nM | 68.9 nM | 12 nM | 43 nM | 92 nM
3 | [2H]C([2H])([2H])N(C(=O)C1(c2ccc(OC)cc2)CCC(F)(F)CC1)[C@H](CO)C(=O)Nc1ccc2[nH]ccc2n1 [Example 77, 4,4-Difluoro-N-[(2R)-3-hydroxy-1-oxo-1-(1H-pyrrolo[3,2-b]pyridin-5-ylamino)propan-2-yl]-1-(4-methoxyphenyl)-N—(^2H3)methylcyclohexanecarboxamide] | 199 nM | 102 nM | 15 nM | 41 nM | 53 nM
4 | COc1ccc(C2(C(=O)N(C)[C@@H](C(=O)Nc3ccc4[nH]ncc4n3)[C@@H](C)O)CCC(F)(F)CC2)cc1 [Example 78, 4,4-Difluoro-N-[(2R,3R)-3-hydroxy-1-oxo-1-(1H-pyrazolo[4,3-b]pyridin-5-ylamino)butan-2-yl]-1-(4-methoxyphenyl)-N-methylcyclohexanecarboxamide] | 4630 nM | 2150 nM | 769 nM | 259 nM | 323 nM
5 | COc1ccc(C2(C(=O)N3CS(=O)(=O)C[C@@H]3C(=O)Nc3ccc4[nH]c(C)cc4n3)CCC(F)(F)CC2)cc1 [Example 79, (4S)-3-{[4,4-Difluoro-1-(4-methoxyphenyl)cyclohexyl]carbonyl}-N-(2-methyl-1H-pyrrolo[3,2-b]pyridin-5-yl)-1,3-thiazolidine-4-carboxamide 1,1-dioxide] | 1670 nM | 1390 nM | 268 nM | 181 nM | 193 nM
6 | COc1ccc(C2(C(=O)N(C)[C@@H](C(=O)Nc3ccc4[nH]ncc4n3)[C@H](C)O)CCC(F)(F)CC2)cc1 [Example 80, 4,4-Difluoro-N-[(2R,3S)-3-hydroxy-1-oxo-1-(1H-pyrazolo[4,3-b]pyridin-5-ylamino)butan-2-yl]-1-(4-methoxyphenyl)-N-methylcyclohexanecarboxamide] | 277 nM | 141 nM | 17 nM | 78 nM | 91 nM
7 | CC(C)(O)c1ccc(C2(C(=O)N3C[C@H](F)C[C@@H]3C(=O)Nc3ccc4[nH]ncc4n3)CCCCC2)cc1 [Example 81a, (4R)-4-Fluoro-1-({1-[4-(2-hydroxypropan-2-yl)phenyl]cyclohexyl}carbonyl)-N-1H-pyrazolo[4,3-b]pyridin-5-yl-D-prolinamide] | 176 nM | 167 nM | 23 nM | 52 nM | 83 nM
8 | COC(=O)c1ccc(C2(C(=O)N3C[C@H](F)C[C@@H]3C(=O)Nc3ccc4[nH]ncc4n3)CCCCC2)cc1 [Example 81b, methyl 4-(1-{[(2R,4R)-4-Fluoro-2-(1H-pyrazolo[4,3-b]pyridin-5-ylcarbamoyl)pyrrolidin-1-yl]carbonyl}cyclohexyl)benzoate] | 258 nM | 231 nM | 16 nM | 41 nM | 64 nM
9 | O=C(Nc1ccc2[nH]ncc2n1)[C@H]1C[C@@H](F)CN1C(=O)C1(c2ccc(O)cc2)CCCCC1 [Example 82, (4R)-4-Fluoro-1-{[1-(4-hydroxyphenyl)cyclohexyl]carbonyl}-N-1H-pyrazolo[4,3-b]pyridin-5-yl-D-prolinamide] | 89.3 nM | 75.1 nM | 13 nM | 12 nM | 21 nM
10 | CC(=O)c1ccc(C2(C(=O)N3C[C@H](F)C[C@@H]3C(=O)Nc3ccc4[nH]ncc4n3)CCCCC2)cc1 [Example 83, (4R)-1-{[1-(4-Acetylphenyl)cyclohexyl]carbonyl}-4-fluoro-N-1H-pyrazolo[4,3-b]pyridin-5-yl-D-prolinamide] | 151 nM | 203 nM | 19 nM | 33 nM | 61 nM
11 | O=C(Nc1ccc2[nH]ncc2n1)[C@H]1C[C@@H](F)CN1C(=O)C1(c2ccc(OCF)c(F)c2)CCC(F)(F)CC1 [Example 85, (4R)-1-({4,4-Difluoro-1-[3-fluoro-4-(fluoromethoxy)phenyl]cyclohexyl}carbonyl)-4-fluoro-N-1H-pyrazolo[4,3-b]pyridin-5-yl-D-prolinamide] | 412 nM | 206 nM | 29 nM | 31 nM | 53 nM
12 | O=C(Nc1ccc2[nH]ncc2n1)[C@H]1C[C@@H](F)CN1C(=O)C1(c2ccc(OCF)c(F)c2)CC(F)(F)C1 [Example 86] | 101 nM | 86.8 nM | 14 nM | 23 nM | 40 nM
13 | O=C(Nc1ccc2[nH]ncc2n1)[C@H]1C[C@@H](F)CN1C(=O)C1(c2ccc(OCC(F)(F)F)c(F)c2)CC(F)(F)C1 [Example 87] | 300 nM | 237 nM | 73 nM | 38 nM | 82 nM
14 | CCOc1ccc(C2(C(=O)N3C[C@H](F)C[C@@H]3C(=O)Nc3ccc4[nH]ncc4n3)CC(F)(F)C2)cc1F [Example 88] | 351 nM | 201 nM | 53 nM | 37 nM | 80 nM
15 | O=C(Nc1ccc2[nH]ncc2n1)[C@H]1C[C@@H](F)CN1C(=O)C1(c2ccc(OC(F)F)c(F)c2)CCC(F)(F)CC1 [Example 89] | 491 nM | 279 nM | 62 nM | 38 nM | 61 nM
16 | O=C(Nc1ccc2[nH]ncc2n1)[C@H]1C[C@@H](F)CN1C(=O)C1(c2ccc(OC(F)F)cc2)CC(F)(F)C1 [Example 90] | 106 nM | 73.4 nM | 9 nM | 4 nM | 7 nM
17 | [2H]C([2H])([2H])Oc1ccc(C2(C(=O)N3C[C@H](F)C[C@@H]3C(=O)Nc3ccc4[nH]ncc4n3)CCC(F)(F)CC2)cc1F [Example 91, (4R)-1-[(4,4-Difluoro-1-{3-fluoro-4-[(^2H3)methyloxy]phenyl}cyclohexyl)carbonyl]-4-fluoro-N-1H-pyrazolo[4,3-b]pyridin-5-yl-D-prolinamide] | 364 nM | 217 nM | 89 nM | 31 nM | 75 nM
18 | [2H]C([2H])([2H])Oc1ccc(C2(C(=O)N3C[C@H](F)C[C@@H]3C(=O)Nc3ccc4[nH]ncc4n3)CCC(F)(F)CC2)cc1 [Example 92, (4R)-1-[(4,4-Difluoro-1-{4-[(^2H3)methyloxy]phenyl}cyclohexyl)carbonyl]-4-fluoro-N-1H-pyrazolo[4,3-b]pyridin-5-yl-D-prolinamide] | 308 nM | 195 nM | 51 nM | 22 nM | 53 nM
19 | COc1cccc(C2(C(=O)N3C[C@H](F)C[C@@H]3C(=O)Nc3ccc4[nH]ncc4n3)CCC(F)(F)CC2)c1 [Example 93, (4R)-1-{[4,4-Difluoro-1-(3-methoxyphenyl)cyclohexyl]carbonyl}-4-fluoro-N-1H-pyrazolo[4,3-b]pyridin-5-yl-D-prolinamide] | 1050 nM | 746 nM | 311 nM | 56 nM | 76 nM
20 | O=C(Nc1ccc2[nH]ncc2n1)[C@H]1C[C@@H](F)CN1C(=O)C1(c2ccc(-c3ccccc3)c(F)c2)CCC(F)(F)CC1 [Example 94] | 586 nM | 625 nM | 123 nM | 109 nM | 305 nM
